Measured values: US5221732A, “Antimicrobial magainin modified peptides” (priority 1988, dated 1993)
Where no end group is shown, it is not given here.

Assays:
[1] = test system: Escherichia coli (ATCC 25922); assay: Antimicrobial assay, macrodilution broth; assay type: cell-based; settings: Escherichia coli (25922); for 50% Minimal inhibitory concentration: 50% inhibition of growth; for 100% Minimal inhibitory concentration: complete inhibition of growth
Experimental: (§1) The antimicrobial activities of magainin analogues were assayed by macrodilution broth procedure of Jones et al (Jones, R. N., Barry, A. L., Gaven, T. L. and Washington, J. A. in "Manual of Clinical Microbiology", Lennette, D. H. Balows, A., Hausler, W. J. and Shadomy, H. J., eds; fourth edition, American Society for Microbiology, Washington, D.C., 1985) with modifications. Different concentrations of peptides were added to 2 ml of trypticase soy broth (BBL) containing the inocula of the test organisms adjusted to 10^5 and 10^6 CFU/ml. Microbial growth was determined by the increase in OD600, after incubation of the tubes at 35° C. for 6-9 h depending on the growth rate. […] The 50% minimal inhibitory concentration was determined from the plots of growth vs concentration of peptide.

[2] = test system: Klebsiella pneumoniae (ATCC 13883); assay: Antimicrobial assay, macrodilution broth; assay type: cell-based; settings: Klebsiella pneumoniae (13883); for 50% Minimal inhibitory concentration: 50% inhibition of growth; for 100% Minimal inhibitory concentration: complete inhibition of growth
Experimental: as §1

[3] = test system: Pseudomonas aeruginosa (ATCC 27853); assay: Antimicrobial assay, macrodilution broth; assay type: cell-based; settings: Pseudomonas aeruginosa (27853); for 50% Minimal inhibitory concentration: 50% inhibition of growth; for 100% Minimal inhibitory concentration: complete inhibition of growth
Experimental: as §1

[4] = test system: Staphylococcus aureus (ATCC 25923) beta-lactamase(-); assay: Antimicrobial assay, macrodilution broth; assay type: cell-based; settings: Staphylococcus aureus (25923) beta-lactamase(-); for 50% Minimal inhibitory concentration: 50% inhibition of growth; for 100% Minimal inhibitory concentration: complete inhibition of growth
Experimental: as §1

[5] = test system: Staphylococcus aureus (ATCC 29213) beta-lactamase(+); assay: Antimicrobial assay, macrodilution broth; assay type: cell-based; settings: Staphylococcus aureus (29213) beta-lactamase(+); for 50% Minimal inhibitory concentration: 50% inhibition of growth; for 100% Minimal inhibitory concentration: complete inhibition of growth
Experimental: as §1

[6] = test system: Streptococcus agalactiae (ATCC 12386); assay: Antimicrobial assay, macrodilution broth; assay type: cell-based; settings: Streptococcus agalactiae (12386); for 50% Minimal inhibitory concentration: 50% inhibition of growth; for 100% Minimal inhibitory concentration: complete inhibition of growth
Experimental: as §1

[7] = test system: Streptococcus faecalis (ATCC 29212); assay: Antimicrobial assay, macrodilution broth; assay type: cell-based; settings: Streptococcus faecalis (29212); for 50% Minimal inhibitory concentration: 50% inhibition of growth; for 100% Minimal inhibitory concentration: complete inhibition of growth
Experimental: as §1

[8] = test system: Gram-positive and Gram-negative bacteria; assay: Antimicrobial assay, overall statements; assay type: cell-based
Experimental: as §1

[9] = Circular dichroic measurements; assay type: physicochemical
[10] = test system: human erythrocyte; assay: Erythrocyte hemolysis assay; assay type: cell-based
Experimental: To 75×12 mm borosilicate test tubes containing a predetermined amount of dried peptide in duplicate, 2.5 ml of diluted human erythrocyte suspension (10%, v/v) in isotonic phosphate-buffered saline was added. After gentle mixing and incubation for 10 min at 37° C., tubes were centrifuged at 3000×g for 10 min. The supernatant was separated from cells and debris, diluted if necessary, and OD350 measured. 100% hemolysis was obtained by using 0.1% Triton X-100.

[11] = 40% CF3CH2OH (trifluoroethanol)

Substance	50% Minimal inhibitory concentration [1]	100% Minimal inhibitory concentration [1]	50% Minimal inhibitory concentration [2]	100% Minimal inhibitory concentration [2]	50% Minimal inhibitory concentration [3]	100% Minimal inhibitory concentration [3]	50% Minimal inhibitory concentration [4]	100% Minimal inhibitory concentration [4]	50% Minimal inhibitory concentration [5]	100% Minimal inhibitory concentration [5]	50% Minimal inhibitory concentration [6]	100% Minimal inhibitory concentration [6]	50% Minimal inhibitory concentration [7]	100% Minimal inhibitory concentration [7]	growth inhibition of both Gram-positive and Gram-negative bacteria (in words) [8]	% structure calculated from CD spectra, alpha-helix ([9]; 50 mM K-phosphate, pH7)	% structure calculated from CD spectra, beta-sheet ([9]; 50 mM K-phosphate, pH7)	% structure calculated from CD spectra, alpha-helix [9, 11]	% structure calculated from CD spectra, beta-sheet [9, 11]	further results
Ac-GIGKFLHAAKKFAKAFVAEIMNS-NH2 [analogue C]	10 µg/mL	25 µg/mL	60 µg/mL	100 µg/mL	> 100 µg/mL	> 100 µg/mL	10 µg/mL	25 µg/mL	7.5 µg/mL	25 µg/mL	0.5 µg/mL	1 µg/mL	5 µg/mL	25 µg/mL	active	0%	48%	61%	14%	growth inhibitory activity toward Gram-negative bacteria ([8]; effect of acetylation of the alpha-amino terminus, versus analogue B): significantly reduced
GIGKFLHAAKKFAKAFVAEIMNS-NH2 [analogue B]	1.2 µg/mL	2.5 µg/mL	5 µg/mL	10 µg/mL	15 µg/mL	25 µg/mL	5 µg/mL	10 µg/mL	5 µg/mL	10 µg/mL	0.25 µg/mL	1 µg/mL	5 µg/mL	10 µg/mL	active	2%	44%	61%	9%	
GIGKFLHSAGKFGKAFVGEIMKS [Magainin 1, reference compound]	100 µg/mL	250 µg/mL	100 µg/mL	250 µg/mL	430 µg/mL	> 500 µg/mL	360 µg/mL	> 500 µg/mL	500 µg/mL	> 500 µg/mL	60 µg/mL	75 µg/mL	360 µg/mL	> 500 µg/mL		0%	44%	24%	37%	
GIGKFLHSAKKFAKAFVAEIMNS-NH2 [analogue F]	1.2 µg/mL	5 µg/mL	5 µg/mL	25 µg/mL	25 µg/mL	50 µg/mL	10 µg/mL	25 µg/mL	5 µg/mL	10 µg/mL	0.25 µg/mL	1 µg/mL	10 µg/mL	25 µg/mL	active	1%	46%	63%	6%	antimicrobial activity ([8]; effect of omission of replacement at Ser8): only slightly; hemolytic activity (in words, comparative) [10]: lower hemolytic activity
